For this experiment, the target named is Recombinant human cathepsin S (CatS) (Homo sapiens, UniProt P25774). In words: Recombinant human cathepsin S (CatS) inhibition assay, fluorogenic substrate Z-Valine-Valine-Arginine-AMC.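 Further: Baculovirus-expressed CatS in pH 5.0 sodium acetate buffer with DTT and NaCl, fluorescence read each minute over 20 min, inhibition derived from rate slope.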

Where two headings read alike, the source gives them in different places.

Sequence of Recombinant human cathepsin S (CatS) (P25774 115-331): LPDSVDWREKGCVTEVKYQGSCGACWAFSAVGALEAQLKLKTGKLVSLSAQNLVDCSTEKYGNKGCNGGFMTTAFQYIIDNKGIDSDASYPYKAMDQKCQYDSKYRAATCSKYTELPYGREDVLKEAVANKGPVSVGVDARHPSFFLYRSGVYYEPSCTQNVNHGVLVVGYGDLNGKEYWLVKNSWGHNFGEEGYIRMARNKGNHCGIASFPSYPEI

With `CS(=O)(=O)N1CCc2c(c(-c3ccc(Cl)c(C#Cc4ccc(CN[C@H]5CCCc6ccccc65)cc4)c3)nn2CCCN2CCN(c3ccccn3)CC2)C1` [Example 216, (1S)—N-({4-[(2-Chloro-5-{5-(methylsulfonyl)-1-[3-(4-pyridin-2-ylpiperazin-1-yl)propyl]-4,5,6,7-tetrahydro-1H-pyrazolo[4,3-c]pyridin-3-yl}phenyl)ethynyl]phenyl}methyl)-1,2,3,4-tetrahydronaphthalen-1-amine], for the setting “CatS IC50”, the IC50 (in general, the point on the concentration scale where inhibition reaches its midpoint) was found to be 70 nM.
With `CS(=O)(=O)N1CCc2c(c(-c3ccc(Cl)c(C#Cc4ccc(-c5nc6ccccc6[nH]5)cc4)c3)nn2CCCN2CCOCC2)C1` [Example 320, 3-(3-{[4-(1H-Benzimidazol-2-yl)phenyl]ethynyl}-4-chlorophenyl)-5-(methylsulfonyl)-1-(3-morpholin-4-ylpropyl)-4,5,6,7-tetrahydro-1H-pyrazolo[4,3-c]pyridine], where the note is “CatS IC50”, the IC50 turned out to be 90 nM.
As to `NC(=O)N1CCc2c(c(-c3ccc(Cl)c(C#Cc4ccc(Cl)c(CNCc5ccccc5)c4)c3)nn2CCCN2CCSCC2)C1` [Example 291, 3-{4-Chloro-3-[(4-chloro-3-{[(phenylmethyl)amino]methyl}phenyl)ethynyl]phenyl}-1-(3-thiomorpholin-4-ylpropyl)-1,4,6,7-tetrahydro-5H-pyrazolo[4,3-c]pyridine-5-carboxamide], the IC50 turned out to be 30 nM.
Consider `NC(=O)N1CCc2c(c(-c3ccc(Cl)c(C#Cc4ccc(CNCc5ccc(Cl)cc5)cc4)c3)nn2CCCN2CCC(C(F)(F)F)CC2)C1` [Example 455, 3-(4-Chloro-3-{[4-({[(4-chlorophenyl)methyl]amino}methyl)phenyl]ethynyl}phenyl)-1-{3-[4-(trifluoromethyl)piperidin-1-yl]propyl}-1,4,6,7-tetrahydro-5H-pyrazolo[4,3-c]pyridine-5-carboxamide], for which the IC50 came out at 40 nM.
Regarding `CS(=O)(=O)N1CCc2c(c(-c3ccc(Cl)c(CCCNS(=O)(=O)c4ccccc4)c3)nn2CCCN2CCC(N3CCCC3=O)CC2)C1` [Example 91, N-{3-[2-Chloro-5-(5-methanesulfonyl-1-{3-[4-(2-oxo-pyrrolidin-1-yl)-piperidin-1-yl]-propyl}-4,5,6,7-tetrahydro-1H-pyrazolo[4,3-c]pyridin-3-yl)-phenyl]-propyl}-benzenesulfonamide], the IC50 is 940 nM.
In the case of `C[C@H]1COCCN1CCCn1nc(-c2ccc(Cl)c(C#Cc3ccc(Cl)c(C(=O)NCC4CNC4)c3)c2)c2c1CCN(C(=O)C(N)=O)C2` [Example 598, 5-{[5-(5-[Amino(oxo)acetyl]-1-{3-[(3S)-3-methylmorpholin-4-yl]propyl}-4,5,6,7-tetrahydro-1H-pyrazolo[4,3-c]pyridin-3-yl)-2-chlorophenyl]ethynyl}-N-(azetidin-3-ylmethyl)-2-chlorobenzamide], for the setting “CatS IC50”, the IC50 came out at 30 nM.
As for `NC(=O)N1CCc2c(c(-c3ccc(Cl)c(C#Cc4ccc(CNCc5ccc(Cl)cc5)cc4)c3)nn2CCCN2CCCCC2)C1` [Example 458, 3-(4-Chloro-3-{[4-({[(4-chlorophenyl)methyl]amino}methyl)phenyl]ethynyl}phenyl)-1-(3-piperidin-1-ylpropyl)-1,4,6,7-tetrahydro-5H-pyrazolo[4,3-c]pyridine-5-carboxamide], the half-inhibitory concentration (IC50) worked out at 60 nM.
In the case of `CS(=O)(=O)N1CCc2c(c(-c3ccc(Cl)c(C#Cc4cccnc4)c3)nn2C[C@@H](O)CN2CCC(C3CCNCC3)CC2)C1` [Example 475, (2S)-1-(4,4′-Bipiperidin-1-yl)-3-{3-[4-chloro-3-(pyridin-3-ylethynyl)phenyl]-5-(methylsulfonyl)-4,5,6,7-tetrahydro-1H-pyrazolo[4,3-c]pyridin-1-yl}propan-2-ol], the IC50 (CatS IC50) came out at 180 nM.
Same read-out and setting: the figure for `CC(=O)OCC(=O)N1CCc2c(c(-c3ccc(Cl)c(C#Cc4ccc(Cl)cc4)c3)nn2CCCN2CCOCC2)C1` [Example 142, Acetic acid 2-[3-[4-chloro-3-(4-chloro-phenylethynyl)-phenyl]-1-(3-morpholin-4-yl-propyl)-1,4,6,7-tetrahydro-pyrazolo[4,3-c]pyridin-5-yl]-2-oxo-ethyl ester] is 280 nM.
Consider `CS(=O)(=O)N1CCc2c(c(-c3ccc(Cl)c(C#Cc4ccc(CNCc5ccccc5)c(Cl)c4)c3)nn2CCCN2CCOCC2)C1` [Example 545, 1-[2-Chloro-4-({2-chloro-5-[5-(methylsulfonyl)-1-(3-morpholin-4-ylpropyl)-4,5,6,7-tetrahydro-1H-pyrazolo[4,3-c]pyridin-3-yl]phenyl}ethynyl)phenyl]-N-(phenylmethyl)methanamine], for which the IC50 (CatS IC50) was 270 nM.
For `CS(=O)(=O)N1CCc2c(c(-c3ccc(Cl)c(CCCN4CCCC4)c3)nn2CCCN2CCC(N3CCCC3=O)CC2)C1` [Example 101, 1-[1-(3-{3-[4-Chloro-3-(3-pyrrolidin-1-yl-propyl)-phenyl]-5-methanesulfonyl-4,5,6,7-tetrahydro-pyrazolo[4,3-c]pyridin-1-yl}-propyl)-piperidin-4-yl]-pyrrolidin-2-one], the IC50 was 2060 nM.
As for `NCC(=O)N1CCc2c(c(-c3ccc(Cl)c(C#Cc4ccc(CNCc5ccc(Cl)cc5)cc4)c3)nn2CCCN2CCOCC2)C1` [Example 154, 2-[3-(4-Chloro-3-{[4-({[(4-chlorophenyl)methyl]amino}methyl)phenyl]ethynyl}phenyl)-1-(3-morpholin-4-ylpropyl)-1,4,6,7-tetrahydro-5H-pyrazolo[4,3-c]pyridin-5-yl]-2-oxoethanamine], the IC50 was found to be 260 nM.
Take `CS(=O)(=O)N1CCc2c(c(-c3ccc(Cl)c(C#Cc4ccccc4CN)c3)nn2CCCN2CCOCC2)C1` [Example 385, 1-[2-({2-Chloro-5-[5-(methylsulfonyl)-1-(3-morpholin-4-ylpropyl)-4,5,6,7-tetrahydro-1H-pyrazolo[4,3-c]pyridin-3-yl]phenyl}ethynyl)phenyl]methanamine]: the IC50 (CatS IC50) was 2720 nM.
Still for that read-out and setting: next, `CS(=O)(=O)N1CCc2c(c(-c3ccc(Cl)c(C#Cc4ccc(F)cc4F)c3)nn2CCCN2CCOCC2)C1` [Example 33, 3-[4-Chloro-3-(2,4-difluoro-phenylethynyl)-phenyl]-5-methanesulfonyl-1-(3-morpholin-4-yl-propyl)-4,5,6,7-tetrahydro-1H-pyrazolo[4,3-c]pyridine]: 750 nM.
As for `CS(=O)(=O)N1CCc2c(c(-c3ccc(Cl)c(C#Cc4ccc(CN5CCCC5)cc4)c3)nn2CCCN2CCOCC2)C1` [Example 78, 3-[4-Chloro-3-(4-pyrrolidin-1-ylmethyl-phenylethynyl)-phenyl]-5-methanesulfonyl-1-(3-morpholin-4-yl-propyl)-4,5,6,7-tetrahydro-1H-pyrazolo[4,3-c]pyridine], where the note is “CatS IC50”, the IC50 came out at 1400 nM.
Consider `NC(=O)N1CCc2c(c(-c3ccc(Cl)c(C#Cc4ccc(Cl)c(C(=O)NC[C@@H]5CCNC5)c4)c3)nn2CCCN2CCSCC2)C1` [Example 582, 3-{4-Chloro-3-[(4-chloro-3-{[(3R)-pyrrolidin-3-ylmethyl]carbamoyl}phenyl)ethynyl]phenyl}-1-(3-thiomorpholin-4-ylpropyl)-1,4,6,7-tetrahydro-5H-pyrazolo[4,3-c]pyridine-5-carboxamide], for which the IC50 came out at 40 nM.
In the case of `Cc1ccc(C#Cc2cc(-c3nn(CCCN4CCOCC4)c4c3CN(S(C)(=O)=O)CC4)ccc2Cl)cc1` [Example 29, 3-(4-Chloro-3-p-tolylethynyl-phenyl)-5-methanesulfonyl-1-(3-morpholin-4-yl-propyl)-4,5,6,7-tetrahydro-1H-pyrazolo[4,3-c]pyridine], where the note is “CatS IC50”, the IC50 worked out at 280 nM.
For `CS(=O)(=O)N1CCc2c(c(-c3ccc(Cl)c(C#Cc4ccc(CNCc5ccsc5)cc4)c3)nn2CCCN2CCOCC2)C1` [Example 422, 1-[4-({2-Chloro-5-[5-(methylsulfonyl)-1-(3-morpholin-4-ylpropyl)-4,5,6,7-tetrahydro-1H-pyrazolo[4,3-c]pyridin-3-yl]phenyl}ethynyl)phenyl]-N-(3-thienylmethyl)methanamine], the IC50 (CatS IC50) amounted to 170 nM.
With `CS(=O)(=O)N1CCc2c(c(-c3ccc(Cl)c(CCCCN4CCCCC4)c3)nn2CCCN2CCC(N3CCCC3=O)CC2)C1` [Example 110, 1-[1-(3-{3-[4-Chloro-3-(4-piperidin-1-yl-butyl)-phenyl]-5-methanesulfonyl-4,5,6,7-tetrahydro-pyrazolo[4,3-c]pyridin-1-yl}-propyl)-piperidin-4-yl]-pyrrolidin-2-one], the IC50 worked out at 3030 nM.
With `CS(=O)(=O)N1CCc2c(c(-c3ccc(Cl)c(C#Cc4ccc(Cl)cc4)c3)nn2CC(O)CN2CCC(C(N)=O)CC2)C1` (centres unmarked) [Example 128, 1-(3-{3-[4-Chloro-3-(4-chloro-phenylethynyl)-phenyl]-5-methanesulfonyl-4,5,6,7-tetrahydro-pyrazolo[4,3-c]pyridin-1-yl}-2-hydroxy-propyl)-piperidine-4-carboxylic acid amide], the IC50 was found to be 110 nM.
The same measure, in the same setting: next, `CN1CCN(CCCc2cc(-c3nn(CCCN4CCC(N5CCCC5=O)CC4)c4c3CN(S(C)(=O)=O)CC4)ccc2Cl)CC1` [Example 106, 1-{1-[3-(3-{4-Chloro-3-[3-(4-methyl-piperazin-1-yl)-propyl]-phenyl}-5-methanesulfonyl-4,5,6,7-tetrahydro-pyrazolo[4,3-c]pyridin-1-yl)-propyl]-piperidin-4-yl}-pyrrolidin-2-one]: 4420 nM; `CS(=O)(=O)N1CCc2c(c(-c3ccc(Cl)c(C#Cc4ccc(CNCc5ccc(Cl)cc5)cc4)c3)nn2CCCN2C[C@@H]3C[C@H]2CO3)C1` [Example 420, 1-[4-({2-Chloro-5-[5-(methylsulfonyl)-1-{3-[(1S,4S)-2-oxa-5-azabicyclo[2.2.1]hept-5-yl]propyl}-4,5,6,7-tetrahydro-1H-pyrazolo[4,3-c]pyridin-3-yl]phenyl}ethynyl)phenyl]-N-[(4-chlorophenyl)methyl]methanamine]: 100 nM.
Still for that read-out and setting: next, `CS(=O)(=O)N1CCc2c(c(-c3ccc(Cl)c(C#Cc4ccc(Cl)cc4)c3)nn2CC(O)CN2CCCC2)C1` (centres unmarked) [Example 129, 1-{3-[4-Chloro-3-(4-chloro-phenylethynyl)-phenyl]-5-methanesulfonyl-4,5,6,7-tetrahydro-pyrazolo[4,3-c]pyridin-1-yl}-3-pyrrolidin-1-yl-propan-2-ol]: 120 nM.
